Columns and labels:
Type in all cases: in vivo
[1] = system: redroot pigweed (Amaranthus retroflexus, AMARE); experiment: Pre-emerge test, greenhouse herbicide activity screening
How it was run: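 Sandy loam pots; pre-emerge: sown 1 d pre-spray, surface-watered after, then bottom-watered. Post-emerge: sown 8–21 d before, 2–3 leaf stage, + 0.25% v/v NIS, bottom-watered. Acetone, 187 l/ha track spray, 15–1000 g ai/ha. 0–100 injury score, day 14.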

[2] = system: sicklepod (Cassia obtusifolia, CASOB); experiment: as above
How it was run: (§1)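 Rating: 0–100 visual injury, 14 DAA. Application: acetone, 187 l/ha, 15–1000 g ai/ha, flat-fan track sprayer with nozzle 40–45 cm above soil or canopy. Post-emerge runs used 0.25% v/v surfactant on 2–3 leaf plants.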

[3] = system: lambsquarters (Chenopodium album, CHEAL); experiment: as above
How it was run: as §1

[4] = system: barnyardgrass (Echinochloa crus-galli, ECHCG); experiment: as above
How it was run: as §1

[5] = system: ivyleaf morningglory (Ipomoea hederacea, IPOHE); experiment: as above
How it was run: as §1

[6] = system: johnsongrass (Sorghum halepense, SORHA); experiment: as above
How it was run: as §1

[7] = system: large crabgrass (Digitaria sanguinalis, DIGSA); experiment: as above
How it was run: as §1

[8] = system: velvetleaf (Abutilon theophrasti, ABUTH); experiment: as above
How it was run: as §1

[9] = system: green foxtail (Setaria viridis, SETVI); experiment: as above
How it was run: as §1

[10] = system: field corn (Zea mays L., var. Dekalb 535, CORN); experiment: Pre-emerge test, crop safety
How it was run: (§2)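 Applied at 15–1000 g ai/ha from acetone in 187 l/ha spray volume. Post-emergence applications included 0.25% v/v non-ionic surfactant and reached plants sown 8–21 days before. Pre-emergence applications were incorporated by surface watering. Efficacy or crop damage was rated on a 0–100 scale after 14 days.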

[11] = system: upland rice (Oryza sp., var. Tebonnet, RICE); experiment: Pre-emerge test, crop safety
How it was run: as §2

[12] = system: sicklepod (Cassia obtusifolia, CASOB); experiment: Post-emerge test, greenhouse herbicide activity screening; conditions: post-emerge; for phytotoxicity rating CASOB: 14 days after application, rating scale 0-100; for Post-emerge Herbicidal Activity CASOB: phytotoxicity rating 0-100 at 14 days after application
How it was run: (§3)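 Compounds in acetone were track-sprayed at 15-1000 g ai/ha (187 l/ha) on sandy loam pots: pre-emerge one day after seeding, post-emerge at 2-3 leaf stage with 0.25% v/v non-ionic surfactant. Phytotoxicity was rated 14 days later on a 0 (no damage) to 100 (complete death) scale.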

[13] = system: lambsquarters (Chenopodium album, CHEAL); experiment: as above; conditions: post-emerge; for phytotoxicity rating CHEAL: 14 days after application, rating scale 0-100; for Post-emerge Herbicidal Activity CHEAL: phytotoxicity rating 0-100 at 14 days after application
How it was run: as §3

[14] = system: barnyardgrass (Echinochloa crus-galli, ECHCG); experiment: as above; conditions: post-emerge; for phytotoxicity rating ECHCG: 14 days after application, rating scale 0-100; for Post-emerge Herbicidal Activity ECHCG: phytotoxicity rating 0-100 at 14 days after application
How it was run: as §3

[15] = system: redroot pigweed (Amaranthus retroflexus, AMARE); experiment: as above; conditions: post-emerge; for phytotoxicity rating AMARE: 14 days after application; for Post-emerge Herbicidal Activity AMARE: phytotoxicity rating 0-100 at 14 days after application
How it was run: as §3

[16] = system: ivyleaf morningglory (Ipomoea hederacea, IPOHE); experiment: as above; conditions: post-emerge; for phytotoxicity rating IPOHE: 14 days after application, rating scale 0-100; for Post-emerge Herbicidal Activity IPOHE: phytotoxicity rating 0-100 at 14 days after application
How it was run: as §3

[17] = system: johnsongrass (Sorghum halepense, SORHA); experiment: as above; conditions: post-emerge; for phytotoxicity rating SORHA: 14 days after application, rating scale 0-100; for Post-emerge Herbicidal Activity SORHA: phytotoxicity rating 0-100 at 14 days after application
How it was run: as §3

[18] = system: large crabgrass (Digitaria sanguinalis, DIGSA); experiment: as above; conditions: post-emerge; for phytotoxicity rating DIGSA: 14 days after application, rating scale 0-100; for Post-emerge Herbicidal Activity DIGSA: phytotoxicity rating 0-100 at 14 days after application
How it was run: as §3

[19] = system: velvetleaf (Abutilon theophrasti, ABUTH); experiment: as above; conditions: post-emerge; for phytotoxicity rating ABUTH: 14 days after application, rating scale 0-100; for Post-emerge Herbicidal Activity ABUTH: phytotoxicity rating 0-100 at 14 days after application
How it was run: as §3

[20] = system: green foxtail (Setaria viridis, SETVI); experiment: as above; conditions: post-emerge; for phytotoxicity rating SETVI: 14 days after application, rating scale 0-100; for Post-emerge Herbicidal Activity SETVI: phytotoxicity rating 0-100 at 14 days after application
How it was run: as §3

[21] = system: field corn (Zea mays L., var. Dekalb 535, CORN); experiment: Post-emerge test, crop safety; conditions: post-emerge; for phytotoxicity rating CORN (crop damage): 14 days after application, rating scale 0-100; for Post-emerge Herbicidal Activity CORN: crop damage rating 0-100 at 14 days after application
How it was run: (§4)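 Plants grown in 10 cm pots of sandy loam mix received acetone-dissolved compounds through a moving flat-fan nozzle. Doses ranged from 15 to 1000 g ai/ha. Pre-emerge pots were seeded one day earlier, post-emerge pots 8–21 days earlier. Fourteen days on, each pot was graded 0–100 for damage.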

[22] = system: upland rice (Oryza sp., var. Tebonnet, RICE); experiment: Post-emerge test, crop safety; conditions: post-emerge; for phytotoxicity rating RICE (crop damage): 14 days after application, rating scale 0-100; for Post-emerge Herbicidal Activity RICE: crop damage rating 0-100 at 14 days after application
How it was run: as §4

[23] = 63 g ai/ha, phytotoxicity rating 0-100, 14 days after application
[24] = 250 g ai/ha, phytotoxicity rating 0-100, 14 days after application
[25] = 63 g ai/ha, crop damage rating 0-100, 14 days after application
[26] = 250 g ai/ha, crop damage rating 0-100, 14 days after application
[27] = pre-emerge, rate 63 g ai/ha, phytotoxicity rating 0-100 at 14 days after application
[28] = pre-emerge, rate 250 g ai/ha, phytotoxicity rating 0-100 at 14 days after application
[29] = crop damage, pre-emerge, rate 63 g ai/ha, phytotoxicity rating 0-100 at 14 days after application
[30] = crop damage, pre-emerge, rate 250 g ai/ha, phytotoxicity rating 0-100 at 14 days after application

COc1c(Cl)cc(F)c(-n2c(=O)cc(C(F)(F)F)n(C)c2=O)c1NC(=O)NCc1ccccc1 [Compound 3-6]
Pre-emerge Herbicidal Activity AMARE [1, 23]: 90 | Pre-emerge Herbicidal Activity AMARE [1, 24]: 100 | Pre-emerge Herbicidal Activity CASOB [2, 23]: 100 | Pre-emerge Herbicidal Activity CASOB [2, 24]: 100 | Pre-emerge Herbicidal Activity CHEAL [3, 23]: 100 | Pre-emerge Herbicidal Activity CHEAL [3, 24]: 100 | Pre-emerge Herbicidal Activity ECHCG [4, 23]: 40 | Pre-emerge Herbicidal Activity ECHCG [4, 24]: 80 | Pre-emerge Herbicidal Activity IPOHE [5, 23]: 100 | Pre-emerge Herbicidal Activity IPOHE [5, 24]: 95 | Pre-emerge Herbicidal Activity SORHA [6, 23]: 30 | Pre-emerge Herbicidal Activity SORHA [6, 24]: 80 | Pre-emerge Herbicidal Activity DIGSA [7, 23]: 30 | Pre-emerge Herbicidal Activity DIGSA [7, 24]: 100 | Pre-emerge Herbicidal Activity ABUTH [8, 23]: 100 | Pre-emerge Herbicidal Activity ABUTH [8, 24]: 100 | Pre-emerge Herbicidal Activity SETVI [9, 23]: 100 | Pre-emerge Herbicidal Activity SETVI [9, 24]: 100 | Pre-emerge Herbicidal Activity CORN [10, 25]: 0 | Pre-emerge Herbicidal Activity CORN [10, 26]: 90 | Pre-emerge Herbicidal Activity RICE [11, 25]: 30 | Pre-emerge Herbicidal Activity RICE [11, 26]: 80 | phytotoxicity rating CASOB ([12]; 63 g ai/ha): 40 | phytotoxicity rating CASOB ([12]; 250 g ai/ha): 90 | phytotoxicity rating CHEAL ([13]; 63 g ai/ha): 50 | phytotoxicity rating CHEAL ([13]; 250 g ai/ha): 90 | phytotoxicity rating ECHCG ([14]; 63 g ai/ha): 0 | phytotoxicity rating ECHCG ([14]; 250 g ai/ha): 20 | phytotoxicity rating AMARE ([15]; 63 g ai/ha, rating scale 0-100 (0 no damage, 100 complete death)): 100 | phytotoxicity rating AMARE ([15]; 250 g ai/ha, rating scale 0-100): 100 | phytotoxicity rating IPOHE ([16]; 63 g ai/ha): 90 | phytotoxicity rating IPOHE ([16]; 250 g ai/ha): 100 | phytotoxicity rating SORHA ([17]; 63 g ai/ha): 0 | phytotoxicity rating SORHA ([17]; 250 g ai/ha): 20 | phytotoxicity rating DIGSA ([18]; 63 g ai/ha): 0 | phytotoxicity rating DIGSA ([18]; 250 g ai/ha): 10 | phytotoxicity rating ABUTH ([19]; 63 g ai/ha): 100 | phytotoxicity rating ABUTH ([19]; 250 g ai/ha): 100 | phytotoxicity rating SETVI ([20]; 63 g ai/ha): 0 | phytotoxicity rating SETVI ([20]; 250 g ai/ha): 40 | phytotoxicity rating CORN (crop damage) ([21]; 63 g ai/ha): 20 | phytotoxicity rating CORN (crop damage) ([21]; 250 g ai/ha): 70 | phytotoxicity rating RICE (crop damage) ([22]; 63 g ai/ha): 30 | phytotoxicity rating RICE (crop damage) ([22]; 250 g ai/ha): 70

CCC(=O)Nc1c(Cl)cc(Cl)c(-n2nc(C)n(C(F)F)c2=O)c1N [Compound 6-19]
Pre-emerge Herbicidal Activity AMARE [1, 27]: 30 | Pre-emerge Herbicidal Activity AMARE [1, 28]: 70 | Pre-emerge Herbicidal Activity CASOB [2, 27]: 0 | Pre-emerge Herbicidal Activity CASOB [2, 28]: 0 | Pre-emerge Herbicidal Activity CHEAL [3, 27]: 70 | Pre-emerge Herbicidal Activity CHEAL [3, 28]: 90 | Pre-emerge Herbicidal Activity ECHCG [4, 27]: 0 | Pre-emerge Herbicidal Activity ECHCG [4, 28]: 0 | Pre-emerge Herbicidal Activity IPOHE [5, 27]: 0 | Pre-emerge Herbicidal Activity IPOHE [5, 28]: 0 | Pre-emerge Herbicidal Activity SORHA [6, 27]: 0 | Pre-emerge Herbicidal Activity SORHA [6, 28]: 0 | Pre-emerge Herbicidal Activity DIGSA [7, 27]: 0 | Pre-emerge Herbicidal Activity DIGSA [7, 28]: 0 | Pre-emerge Herbicidal Activity ABUTH [8, 27]: 20 | Pre-emerge Herbicidal Activity ABUTH [8, 28]: 50 | Pre-emerge Herbicidal Activity SETVI [9, 27]: 0 | Pre-emerge Herbicidal Activity SETVI [9, 28]: 10 | Pre-emerge Herbicidal Activity CORN [10, 29]: 0 | Pre-emerge Herbicidal Activity CORN [10, 30]: 0 | Pre-emerge Herbicidal Activity RICE [11, 29]: 0 | Pre-emerge Herbicidal Activity RICE [11, 30]: 0 | Post-emerge Herbicidal Activity CASOB ([12]; 63 g ai/ha): 0 | Post-emerge Herbicidal Activity CASOB ([12]; 250 g ai/ha): 0 | Post-emerge Herbicidal Activity CHEAL ([13]; 63 g ai/ha): 0 | Post-emerge Herbicidal Activity CHEAL ([13]; 250 g ai/ha): 60 | Post-emerge Herbicidal Activity ECHCG ([14]; 63 g ai/ha): 0 | Post-emerge Herbicidal Activity ECHCG ([14]; 250 g ai/ha): 0 | Post-emerge Herbicidal Activity AMARE ([15]; 63 g ai/ha): 0 | Post-emerge Herbicidal Activity AMARE ([15]; 250 g ai/ha): 30 | Post-emerge Herbicidal Activity IPOHE ([16]; 63 g ai/ha): 0 | Post-emerge Herbicidal Activity IPOHE ([16]; 250 g ai/ha): 30 | Post-emerge Herbicidal Activity SORHA ([17]; 63 g ai/ha): 0 | Post-emerge Herbicidal Activity SORHA ([17]; 250 g ai/ha): 0 | Post-emerge Herbicidal Activity DIGSA ([18]; 63 g ai/ha): 0 | Post-emerge Herbicidal Activity DIGSA ([18]; 250 g ai/ha): 0 | Post-emerge Herbicidal Activity ABUTH ([19]; 63 g ai/ha): 0 | Post-emerge Herbicidal Activity ABUTH ([19]; 250 g ai/ha): 50 | Post-emerge Herbicidal Activity SETVI ([20]; 63 g ai/ha): 0 | Post-emerge Herbicidal Activity SETVI ([20]; 250 g ai/ha): 0 | Post-emerge Herbicidal Activity CORN ([21]; 63 g ai/ha): 0 | Post-emerge Herbicidal Activity CORN ([21]; 250 g ai/ha): 0 | Post-emerge Herbicidal Activity RICE ([22]; 63 g ai/ha): 0 | Post-emerge Herbicidal Activity RICE ([22]; 250 g ai/ha): 0

From US6355799B1, “Substituted benzene compounds, process for their preparation, and herbicidal and defoliant compositions containing them” (ISK Americas Incorporated, priority 1997, dated 2002)
